# Data as given in patent US20030068322A1, “Methods of antibody-directed enzyme-prodrug therapy” (IMMUNOMEDICS, INC., priority 1988, published 2003).
# How the values were obtained:
# [1] = versus CPT-11; cited from earlier work
# lymphoma = experiment: Therapy of lymphoma in a human patient; format: in vivo; details: 10 mg i.v. on each of 4 days after anti-lymphoma IgG-glucuronidase conjugate
# Experimental: A human patient suffering from lymphoma is infused intravenously with a sterile, pyrogen-free PBS solution containing 5 mg of an anti-lymphoma IgG-glucuronidase conjugate prepared according to the example above, and labeled with I-131. […] The patient is then infused intravenously with a sterile, pyrogen-free PBS solution containing 10 mg of epirubicin glucuronide, prepared according to the example above, on each of the next 4 days.
# [2] = target: T1, human beta-D-glucuronidase (Homo sapiens, UniProt P08236); details: Arcamone, Cancer Res. 45:5995 (1985); cited from earlier work
# T1 sequence (P08236 23-651): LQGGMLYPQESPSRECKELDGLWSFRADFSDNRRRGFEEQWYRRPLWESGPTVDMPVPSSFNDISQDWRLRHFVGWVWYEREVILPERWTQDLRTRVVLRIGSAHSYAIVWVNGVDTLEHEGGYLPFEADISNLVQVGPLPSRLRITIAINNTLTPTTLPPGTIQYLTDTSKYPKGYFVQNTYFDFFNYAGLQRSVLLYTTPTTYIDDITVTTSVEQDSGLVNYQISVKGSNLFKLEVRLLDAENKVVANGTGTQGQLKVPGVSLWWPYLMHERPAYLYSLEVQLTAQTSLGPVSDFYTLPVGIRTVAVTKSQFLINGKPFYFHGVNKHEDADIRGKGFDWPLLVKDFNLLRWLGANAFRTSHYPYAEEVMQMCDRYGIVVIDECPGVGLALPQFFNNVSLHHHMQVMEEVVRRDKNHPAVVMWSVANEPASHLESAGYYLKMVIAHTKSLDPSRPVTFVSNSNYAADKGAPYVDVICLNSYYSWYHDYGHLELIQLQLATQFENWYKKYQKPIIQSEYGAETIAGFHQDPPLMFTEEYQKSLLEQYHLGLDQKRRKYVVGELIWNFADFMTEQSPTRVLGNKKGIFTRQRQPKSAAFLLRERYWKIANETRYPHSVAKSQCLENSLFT
smiles,measurement,setting,value
CCc1c2c(nc3ccc(O)cc13)-c1cc3c(c(=O)n1C2)COC(=O)[C@]3(O)CC [SN-38],toxicity relative to CPT-11,[1],at least one hundred-fold more toxic
COc1cccc2c1C(=O)c1c(O)c3c(c(O)c1C2=O)C[C@@](O)(C(=O)CO)C[C@@H]3O[C@H]1C[C@H](N)[C@@H](O[C@@H]2O[C@H](C(=O)O)[C@@H](O)[C@H](O)[C@H]2O)[C@H](C)O1 [epirubicin glucuronide],reduction in lymphoma by radioimmunodetection,lymphoma,significant reduction in the lymphoma
COc1cccc2c1C(=O)c1c(O)c3c(c(O)c1C2=O)C[C@@](O)(C(=O)CO)C[C@@H]3O[C@H]1C[C@H](N)[C@@H](O)[C@H](C)O1 [epirubicin],substrate for human beta-D-glucuronidase,[2],has been shown to be a substrate
